Data: ChEMBL document CHEMBL3351829, “Nostosins, Trypsin Inhibitors Isolated from the Terrestrial Cyanobacterium Nostoc sp. Strain FSN” (J Nat Prod, 2014)

What was measured:
Trypsin [1] = target: T1, Trypsin (Sus scrofa, UniProt P00761); test: (§1) Inhibition of pig pancreas trypsin type IX-S using Boc-Gln-Ala-Arg-MCA substrate by 7-amino-4-methylcoumarin release based spectrofluorometry
Trypsin (Sus scrofa) = Trypsin (Sus scrofa) (UniProt P00761); test: as §1; conditions: TDE = time-dependent effect
Sequence of Trypsin (Sus scrofa) (P00761 whole entry): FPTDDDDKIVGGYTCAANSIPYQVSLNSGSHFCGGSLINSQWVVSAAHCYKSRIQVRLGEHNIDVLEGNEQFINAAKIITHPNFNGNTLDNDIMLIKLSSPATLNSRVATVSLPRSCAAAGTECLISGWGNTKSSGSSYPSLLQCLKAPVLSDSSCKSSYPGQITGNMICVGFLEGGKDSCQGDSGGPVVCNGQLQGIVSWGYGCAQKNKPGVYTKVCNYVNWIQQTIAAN

Trypsin [2] = target: T1, Trypsin; test: Inhibition of pig pancreas trypsin type IX-S

T1 sequence (P00761 whole entry): as above

| IC50 (Trypsin [1]) [nM] | inhibition (Trypsin (Sus scrofa)) | IC50 (Trypsin [2]) [nM] | Compound |
| --- | --- | --- | --- |
| 350 | tde | – | CC[C@H](C)[C@H](NC(=O)C(O)CCc1ccc(O)cc1)C(=O)N[C@H](C=O)CCCNC(=N)N (some centres not stated) |
| < 100 | – | – | C[C@H]1C[C@@H](C(=O)NC(C=O)CCCNC(=N)N)N(C(=O)[C@@H](CCc2ccc(O)cc2)NC(=O)[C@H](O)Cc2ccc(O)cc2)C1 (some centres not stated) [SPUMIGIN E] |
| 500 | – | > 200 | CC(=O)N[C@@H](CC(C)C)C(=O)N[C@@H](CC(C)C)C(=O)N[C@H](C=O)CCCNC(=N)N [LEUPEPTIN] |
| 55000 | tde | – | CC[C@H](C)[C@H](NC(=O)C(O)CCc1ccc(O)cc1)C(=O)N[C@H](CO)CCCNC(=N)N (some centres not stated) |
